{"source": "patent US20100210611A1", "about": "“COMBINATION THERAPY” (priority 2007, published 2010)", "key": {"[1]": {"assay": "Blend uniformity (individual capsule assay)", "format": "physicochemical", "details": "HPLC, Mean ± RSD", "experimental": "To assess blend uniformity, capsules from each blend were opened and rinsed with methanol. The solution was sonicated for 5 minutes at room temperature, centrifuged at 3000 rpm for 15 minutes then assayed using a UV-VIS spectrophotometer at a wavelength of 346 nm. […]\nTo assess blend uniformity, the blend was sampled randomly from the glass vial. The drugs were extracted analogous to that described in section Blend Uniformity for Example 1. However, the content of montelukast acid and mometasone furoate were analyzed by High Performance Liquid Chromatography (HPLC) employing a phenyl column with a controlled temperature of 50° C., a mixture of water containing 0.2% trifluoroacetic acid (TFA) and acetonitrile containing 0.2% TFA (53:47) as the mobile phase at a flow rate 2 ml/min and UV-detection at 248 nm.\nThe blend uniformity was assessed in a manner analogous to that described in the Blend Uniformity section in Example 4, except the content of montelukast acid and ciclesonide were analyzed by High Performance Liquid Chromatography (HPLC) employing a phenyl column with a controlled temperature of 50° C., a mixture of water containing 0.2% trifluoroacetic acid (TFA) and acetonitrile containing 0.2% TFA (40:60) at a flow rate 2 ml/min and UV-detection at 248 nm."}, "[2]": {"test_system": "Ascaris challenge in allergic sheep", "assay": "Allergic sheep model: EAR, LAR and AHR response to Ascaris challenge", "format": "in vivo", "details": "for AHR (%) inhibition / EAR (%) Inhibition / LAR (%) inhibition: single dose 30 minutes before Ascaris challenge", "experimental": "The allergic sheep model was used to test the effect of inhaled montelukast acid against early asthmatic response (EAR), late asthmatic response (LAR) and airway hyper-reactivity (AHR) response to Ascaris challenge in allergic sheep. The compound was administered directly into the lungs using the Spinhaler DPI that was attached directly to an indwelling endotracheal tube. Capsules used in the Spinhaler contained a micronized blend of 20% drug/80% lactose, corresponding to approx. 5 mg of the active compound. The compound was administered as a single dose 30 minutes before Ascaris challenge. To optimize delivery, each Spinhaler actuation was synchronized with a series of aspiratory cycles.\nDoses for inhalation were selected based on total IV doses administered in sheep studies that had been conducted. Administration of 3 or 9 capsules should achieve a total inhaled dose of approximately 0.1 mg/kg and 0.3 mg/kg, respectively. The purported dose delivered is an estimate based on an experimentally determined fine particle fraction efficiency of 30%. Plasma drug levels were measured at various time points throughout the study.\nInitial experiments (n=2) were performed with 0.1 mg/kg of montelukast acid. […] The second set of experiments (n=4) was performed with 0.3 mg/kg of montelukast acid."}, "[3]": {"assay": "Aerodynamic particle size distribution, Andersen cascade impaction (ACI)", "format": "physicochemical", "details": "Spinhaler; for MMAD: cutoff diameter based on airflow rate of 28.3 L/min; for amount in ACI: including mouthpiece adapter", "from_the_text": "The Andersen cascade impaction (ACI) (Apparatus 3) was the device used to determine the aerodynamic size distribution. The impaction provided in vitro measurements of the fraction of the aerosol that has the potential to reach the alveolar region of the lung. This value is represented by the portion of particles detected below plate 2. The impaction was operated at the flow rate and test time according to the method described in USP <601>. Because the Spinhaler® is a low resistance device, it is difficult to achieve a pressure drop of 4 kPa, an adjustment of the air flow rate at the intake of the flow control was performed, as discussed above. Each impaction plate was coated with silicone grease (316 Dow Corning) to prevent particles from bouncing off the plates and returning to the air stream. All stages were used since the test flow rate was less than 60 L/min. All pieces of the impaction including the inhaler and capsule were rinsed with solvent, diluted to suitable volumes, sonicated, centrifuged and assayed using the UV-VIS spectrophotometer. The respirable portion was quantified by the in vitro fine particle fraction and fine particle mass. Dose uniformity and cascade impaction tests were carried out at controlled temperature (20-25° C.) and humidity (50% RH). […]\nAerodynamic size distribution was performed according to USP Chapter <601> by using ACI Apparatus 3 with the Spinhaler® device analogous to that described in section Aerodynamic Particle Size Distribution for Example 1. However, the HPLC was used to analyze the content of the drugs as described in the Blend Uniformity in this example.\nAerodynamic size distribution was performed according to USP Chapter <601> by using ACI Apparatus 3 with the Spinhaler® device in a manner analogous to that described in section Aerodynamic Particle Size Distribution in Example 4. The content of the drugs were analyzed as described in the Blend Uniformity in this example."}, "[4]": {"assay": "Moisture and light sensitivity", "format": "physicochemical"}, "[5]": {"details": "Approx. 0.1 mg/kg (3 capsules) inhaled via Spinhaler, n=2"}, "[6]": {"details": "Approx. 0.3 mg/kg (9 capsules) inhaled via Spinhaler, n=4"}, "[7]": {"details": "Example 4 blend, blend with mometasone furoate"}, "[8]": {"details": "Example 5 blend, blend with ciclesonide"}}, "note": "Values joined by “and” are separate entries in the source; they are usually repeats but may differ in a detail not shown here. Identical values can stand only once."}
{"smiles": "CC(C)(O)c1ccccc1CC[C@@H](SCC1(CC(=O)O)CC1)c1cccc(/C=C/c2ccc3ccc(Cl)cc3n2)c1", "note": "[Montelukast Acid, montelukast acid]", "values": [{"measurement": "Amount Recovered (μg/Capsule)", "setting": "[1]; Example 4 blend (montelukast acid 4%, mometasone furoate 1.6%)", "result": "940.4 µg and 907.0 µg and 953.9 µg"}, {"measurement": "Amount Recovered (μg/Capsule)", "setting": "[1]; Example 4 blend (montelukast acid 4%, mometasone furoate 1.6%), mean", "result": "933.8 ± 2.6", "unit": "µg"}, {"measurement": "Amount Recovered, %", "setting": "[1]; Example 4 blend", "result": "91.4% and 93.0% and 93.9%"}, {"measurement": "Amount Recovered, %", "setting": "[1]; Example 4 blend, mean", "result": "92.8 ± 1.4", "unit": "%"}, {"measurement": "Amount Recovered (μg/Capsule)", "setting": "[1]; Example 5 blend (montelukast acid 4%, ciclesonide 0.64%)", "result": "943.3 µg and 928.8 µg and 997.5 µg"}, {"measurement": "Amount Recovered (μg/Capsule)", "setting": "[1]; Example 5 blend (montelukast acid 4%, ciclesonide 0.64%), mean of three capsules", "result": "956.6 ± 3.4", "unit": "µg"}, {"measurement": "Amount Recovered, %", "setting": "[1]; Example 5 blend", "result": "94.3% and 92.9% and 99.8%"}, {"measurement": "Amount Recovered, %", "setting": "[1]; Example 5 blend, mean of three capsules", "result": "95.7 ± 3.4", "unit": "%"}, {"measurement": "inhibition of EAR, LAR and AHR (in words)", "setting": "[2]; 0.1 mg/kg inhaled, n=2", "result": "partial inhibition of the LAR and AHR but not the EAR"}, {"measurement": "inhibition of EAR, LAR and AHR (in words)", "setting": "[2]; 0.3 mg/kg inhaled, n=4", "result": "Marked inhibition of all three phases of the response"}, {"measurement": "AHR (%) inhibition", "setting": "[2]; [5]", "result": 60, "unit": "%"}, {"measurement": "EAR (%) Inhibition", "setting": "[2]; [5]", "result": 7, "unit": "%"}, {"measurement": "LAR (%) inhibition", "setting": "[2]; [5]", "result": 42, "unit": "%"}, {"measurement": "AHR (%) inhibition", "setting": "[2]; [6]", "result": 76, "unit": "%"}, {"measurement": "EAR (%) Inhibition", "setting": "[2]; [6]", "result": 47, "unit": "%"}, {"measurement": "LAR (%) inhibition", "setting": "[2]; [6]", "result": 79, "unit": "%"}, {"measurement": "FPF", "setting": "[3]; Example 4 blend", "result": 29, "unit": "%"}, {"measurement": "FPD", "setting": "[3]; [7]", "result": "126.1 µg and 145.7 µg and 118.7 µg"}, {"measurement": "FPF", "setting": "[3]; [7]", "result": "28.6% and 28.4% and 29.9%"}, {"measurement": "GSD", "setting": "[3]; [7]", "result": "2.1 and 1.4"}, {"measurement": "Total recovered", "setting": "[3]; [7]", "result": "953 µg and 962 µg and 921 µg"}, {"measurement": "amount in inhaler", "setting": "[3]; [7]", "result": "512 µg and 450 µg and 524 µg"}, {"measurement": "MMAD", "setting": "[3]; Example 4 blend", "result": 4.5, "unit": "μm"}, {"measurement": "MMAD", "setting": "[3]; [7]", "result": "4.6 μm and 4.4 μm"}, {"measurement": "MMAD", "setting": "[3]; Example 4 blend, mean", "result": 4.5, "unit": "μm"}, {"measurement": "amount in ACI", "setting": "[3]; [7]", "result": "441 µg and 513 µg and 397 µg"}, {"measurement": "amount in ACI", "setting": "[3]; Example 4 blend, mean", "result": 450, "unit": "µg"}, {"measurement": "FPD", "setting": "[3]; Example 4 blend, mean", "result": 130.2, "unit": "µg"}, {"measurement": "FPF", "setting": "[3]; Example 4 blend, mean", "result": 29.0, "unit": "%"}, {"measurement": "GSD", "setting": "[3]; Example 4 blend, mean", "result": 1.6}, {"measurement": "Total recovered", "setting": "[3]; Example 4 blend, mean", "result": 945, "unit": "µg"}, {"measurement": "amount in inhaler", "setting": "[3]; Example 4 blend, mean", "result": 495, "unit": "µg"}, {"measurement": "FPF", "setting": "[3]; Example 5 blend", "result": 38, "unit": "%"}, {"measurement": "FPD", "setting": "[3]; [8]", "result": "161.8 µg and 190.6 µg and 179.0 µg"}, {"measurement": "FPF", "setting": "[3]; [8]", "result": "35.2% and 40.7%"}, {"measurement": "GSD", "setting": "[3]; [8]", "result": "1.5 and 2.0"}, {"measurement": "Total recovered", "setting": "[3]; [8]", "result": "990 µg and 882 µg and 904 µg"}, {"measurement": "amount in inhaler", "setting": "[3]; [8]", "result": "530 µg and 413 µg and 431 µg"}, {"measurement": "MMAD", "setting": "[3]; Example 5 blend", "result": 3.9, "unit": "μm"}, {"measurement": "MMAD", "setting": "[3]; [8]", "result": "3.9 μm and 4.0 μm and 3.8 μm"}, {"measurement": "amount in ACI", "setting": "[3]; [8]", "result": "459 µg and 468 µg and 472 µg"}, {"measurement": "amount in ACI", "setting": "[3]; Example 5 blend, mean", "result": 467, "unit": "µg"}, {"measurement": "FPD", "setting": "[3]; Example 5 blend, mean", "result": 177.1, "unit": "µg"}, {"measurement": "FPF", "setting": "[3]; Example 5 blend, mean", "result": 37.9, "unit": "%"}, {"measurement": "GSD", "setting": "[3]; Example 5 blend, mean", "result": 1.7}, {"measurement": "Total recovered", "setting": "[3]; Example 5 blend, mean", "result": 925, "unit": "µg"}, {"measurement": "amount in inhaler", "setting": "[3]; Example 5 blend, mean", "result": 458, "unit": "µg"}, {"measurement": "moisture and light sensitivity", "setting": "[4]", "result": "moisture sensitive and photosensitive"}]}
